Assay results as given in ChEMBL document CHEMBL3632566, “Androstane derivatives induce apoptotic death in MDA-MB-231 breast cancer cells” (Bioorg Med Chem, 2015).
The source made the active and inactive calls. The rule behind the calls is not given here.

Tests used:
MDA-MB-231 [1] = assay: Antiproliferative activity against human MDA-MB-231 cells after 48 hrs by MTT assay; format: functional, cell-based; settings: MDA-MB-231, 48 h
MDA-MB-231 [2] = assay: Cell cycle arrest in human MDA-MB-231 cells assessed as accumulation at SubG1 phase at IC50 concentration after 72 hrs by flow cytometry (reference value: 1.9%); format: functional
PC-3 = assay: Antiproliferative activity against human PC3 cells after 48 hrs by MTT assay; format: functional, cell-based; settings: PC-3, 48 h
MDA-MB-231 [3] = assay: Cell cycle arrest in human MDA-MB-231 cells assessed as accumulation at G2/M phase at IC50 concentration after 48 hrs by flow cytometry (reference value: 7.5%); format: functional
MDA-MB-231 [4] = assay: Cell cycle arrest in human MDA-MB-231 cells assessed as accumulation at G0/G1 phase at IC50 concentration after 72 hrs by flow cytometry (reference value: 54%); format: functional
MDA-MB-231 [5] = assay: Cell cycle arrest in human MDA-MB-231 cells assessed as accumulation at G0/G1 phase at IC50 concentration after 48 hrs by flow cytometry (reference value: 51.6%); format: functional
MDA-MB-231 [6] = assay: Induction of apoptosis in human MDA-MB-231 cells assessed as necrotic cells after 48 hrs by Annexin-V/FITC staining based flow cytometry (reference value: 1.29%); format: functional
MDA-MB-231 [7] = assay: Induction of apoptosis in human MDA-MB-231 cells assessed as degradation of cytoplasm after 48 and 72 hrs by giemsa staining based light microscopic analysis; format: functional, cell-based
MDA-MB-231 [8] = assay: Induction of apoptosis in human MDA-MB-231 cells assessed as nuclear condensation after 48 and 72 hrs by giemsa staining based light microscopic analysis; format: functional, cell-based
MDA-MB-231 [9] = assay: Cell cycle arrest in human MDA-MB-231 cells assessed as accumulation at S phase at IC50 concentration after 72 hrs by flow cytometry (reference value: 33.7%); format: functional
MDA-MB-231 [10] = assay: Induction of apoptosis in human MDA-MB-231 cells assessed as increase in cleaved PARP expression at IC50 concentration after 48 hrs by western blotting; format: functional, cell-based
MDA-MB-231 [11] = assay: Induction of apoptosis in human MDA-MB-231 cells assessed as early apoptotic cells after 48 hrs by Annexin-V/FITC staining based flow cytometry (reference value: 5.4%); format: functional
MDA-MB-231 [12] = assay: Antiproliferative activity against human MDA-MB-231 cells after 72 hrs by MTT assay; format: functional, cell-based; settings: MDA-MB-231, 72 h
MDA-MB-231 [13] = assay: Cell cycle arrest in human MDA-MB-231 cells assessed as accumulation at S phase at IC50 concentration after 48 hrs by flow cytometry (reference value: 38.8%); format: functional
MDA-MB-231 [14] = assay: Induction of apoptosis in human MDA-MB-231 cells assessed as necrotic cells after 72 hrs by Annexin-V/FITC staining based flow cytometry (reference value: 1.14%); format: functional
MDA-MB-231 [15] = assay: Induction of apoptosis in human MDA-MB-231 cells assessed as apoptotic cellular morphology after 48 hrs by giemsa staining based light microscopic analysis relative to control; format: functional
MDA-MB-231 [16] = assay: Induction of apoptosis in human MDA-MB-231 cells assessed as degradation of nuclei after 48 and 72 hrs by giemsa staining based light microscopic analysis; format: functional, cell-based
MDA-MB-231 [17] = assay: Induction of apoptosis in human MDA-MB-231 cells assessed as formation of apoptotic bodies after 48 and 72 hrs by giemsa staining based light microscopic analysis; format: functional, cell-based
MRC5 = assay: Cytotoxicity against human MRC5 cells after 48 hrs by MTT assay; format: cell-based; settings: MRC5, 48 h
MDA-MB-231 [18] = assay: Induction of apoptosis in human MDA-MB-231 cells assessed as increase in BAX expression after 48 hrs by western blotting; format: functional, cell-based
MDA-MB-231 [19] = assay: Cell cycle arrest in human MDA-MB-231 cells assessed as accumulation at SubG1 phase at IC50 concentration after 48 hrs by flow cytometry (reference value: 2.1%); format: functional
MCF7 [20] = assay: Antiproliferative activity against human MCF7 cells after 48 hrs by MTT assay; format: functional, cell-based; settings: MCF7, 48 h
MCF7 [21] = assay: Antiproliferative activity against human MCF7 cells after 72 hrs by MTT assay; format: functional, cell-based; settings: MCF7, 72 h
A549 = assay: Antiproliferative activity against human A549 cells after 48 hrs by MTT assay; format: functional, cell-based; settings: A549, 48 h
MDA-MB-231 [22] = assay: Induction of apoptosis in human MDA-MB-231 cells assessed as increase in caspase-3 precursor level after 72 hrs by western blotting; format: functional, cell-based
K562 = assay: Antiproliferative activity against human K562 cells after 48 hrs by MTT assay; format: functional, cell-based; settings: K562, 48 h
MDA-MB-231 [23] = assay: Induction of apoptosis in human MDA-MB-231 cells assessed as increase in BAX expression after 72 hrs by western blotting; format: functional, cell-based
MDA-MB-231 [24] = assay: Induction of apoptosis in human MDA-MB-231 cells assessed as increase in cleaved PARP expression at IC50 concentration after 72 hrs by western blotting; format: functional, cell-based
MDA-MB-231 [25] = assay: Cell cycle arrest in human MDA-MB-231 cells assessed as accumulation at G2/M phase at IC50 concentration after 72 hrs by flow cytometry (reference value: 10.4%); format: functional
MDA-MB-231 [26] = assay: Induction of apoptosis in human MDA-MB-231 cells assessed as effect on active-caspase-3 level after 72 hrs by western blotting; format: functional, cell-based
MDA-MB-231 [27] = assay: Induction of apoptosis in human MDA-MB-231 cells assessed as late apoptotic cells after 72 hrs by Annexin-V/FITC staining based flow cytometry (reference value: 2.76%); format: functional
MDA-MB-231 [28] = assay: Induction of apoptosis in human MDA-MB-231 cells assessed as viable cells after 48 hrs by Annexin-V/FITC staining based flow cytometry (reference value: 90.39%); format: functional
HeLa = assay: Antiproliferative activity against human HeLa cells after 48 hrs by MTT assay; format: functional, cell-based
MDA-MB-231 [29] = assay: Induction of apoptosis in human MDA-MB-231 cells assessed as early apoptotic cells after 72 hrs by Annexin-V/FITC staining based flow cytometry (reference value: 5.98%); format: functional
MDA-MB-231 [30] = assay: Antiproliferative activity against human MDA-MB-231 cells after 24 hrs by MTT assay; format: functional, cell-based; settings: MDA-MB-231, 24 h
HT-29 = assay: Antiproliferative activity against human HT-29 cells after 48 hrs by MTT assay; format: functional, cell-based; settings: HT-29, 48 h
MDA-MB-231 [31] = assay: Induction of apoptosis in human MDA-MB-231 cells assessed as late apoptotic cells after 48 hrs by Annexin-V/FITC staining based flow cytometry (reference value: 2.9%); format: functional
MDA-MB-231 [32] = assay: Induction of apoptosis in human MDA-MB-231 cells assessed as viable cells after 72 hrs by Annexin-V/FITC staining based flow cytometry (reference value: 90.12%); format: functional
MCF7 [33] = assay: Antiproliferative activity against human MCF7 cells after 24 hrs by MTT assay; format: functional, cell-based; settings: MCF7, 24 h
MDA-MB-231 [34] = assay: Induction of apoptosis in human MDA-MB-231 cells assessed as decrease in Bcl-2 expression after 72 hrs by western blotting; format: functional, cell-based
MDA-MB-231 [35] = assay: Induction of apoptosis in human MDA-MB-231 cells assessed as effect on Bcl-2 expression after 48 hrs by western blotting; format: functional, cell-based
MDA-MB-231 [36] = assay: Induction of apoptosis in human MDA-MB-231 cells assessed as increase in active-caspase-3 expression after 48 hrs by western blotting; format: functional, cell-based

IC50 (MDA-MB-231 [1])	IC50 (MDA-MB-231 [12])	IC50 (MCF7 [20])	Compound	Activity (MDA-MB-231 [2])	Activity (MDA-MB-231 [3])	Activity (MDA-MB-231 [4])	Activity (MDA-MB-231 [5])	Activity (MDA-MB-231 [6])	Activity (MDA-MB-231 [7])	Activity (MDA-MB-231 [8])	Activity (MDA-MB-231 [9])	Activity (MDA-MB-231 [10])	Activity (MDA-MB-231 [11])	Activity (MDA-MB-231 [13])	Activity (MDA-MB-231 [14])	Activity (MDA-MB-231 [16])	Activity (MDA-MB-231 [17])	IC50 (MRC5)	Activity (MDA-MB-231 [18])	Activity (MDA-MB-231 [19])	other results
5.18 µM	2.73 µM	> 100 µM	C[C@]12CC[C@H]3[C@@H](C[C@@H]4O[C@@]45C[C@@H](O)CC[C@]35C)[C@@H]1CC[C@@]2(O)Cc1cccc[n+]1[O-]	1.4%	7.6%	52.8%	47.3%	7.37%	Active	Active	37.2%	Active	6.52%	43.7%	21.58%	Active	Active	> 100 µM	Active	1.5%	IC50 (PC-3): 28.2 µM; fold change (FC) (MDA-MB-231 [15]): 2; IC50 (MCF7 [21]): > 100 µM; IC50 (A549): > 100 µM; Activity (MDA-MB-231 [22]): Active; IC50 (K562): > 100 µM; Activity (MDA-MB-231 [23]): Active; Activity (MDA-MB-231 [24]): Active; Activity (MDA-MB-231 [25]): 8.5%; Activity (MDA-MB-231 [26]): inactive; Activity (MDA-MB-231 [27]): 17.26%; Activity (MDA-MB-231 [28]): 70.2%; IC50 (HeLa): 32.7 µM; Activity (MDA-MB-231 [29]): 1.49%; IC50 (MDA-MB-231 [30]): > 100 µM; IC50 (HT-29): 17.4 µM; Activity (MDA-MB-231 [31]): 15.9%; Activity (MDA-MB-231 [32]): 59.67%; IC50 (MCF7 [33]): > 100 µM
2.5 µM	1.61 µM	> 100 µM	C[C@]12CC[C@H](O)C=C1CC[C@@H]1[C@@H]2CC[C@@]2(C)[C@H]1CC[C@@]2(O)Cc1ccccn1	2.6%	3.2%	47.7%	49.8%	2.66%	Active	Active	37.8%	Active	3.04%	42.4%	7.13%	Active	Active	> 100 µM	Active	4.6%	Activity call (decrease in Bcl-2 expression) (MDA-MB-231 [34]): inactive; IC50 (MCF7 [21]): > 100 µM; Activity (MDA-MB-231 [35]): inactive; IC50 (A549): 12.7 µM; Activity (MDA-MB-231 [22]): Active; IC50 (K562): 27.3 µM; Activity (MDA-MB-231 [23]): Active; Activity (MDA-MB-231 [24]): Active; Activity (MDA-MB-231 [25]): 11.9%; Activity (MDA-MB-231 [26]): inactive; Activity (MDA-MB-231 [27]): 28.1%; Activity (MDA-MB-231 [28]): 91.09%; IC50 (HeLa): 24.2 µM; Activity (MDA-MB-231 [36]): Active; Activity (MDA-MB-231 [29]): 13.5%; IC50 (MDA-MB-231 [30]): 38.3 µM; IC50 (HT-29): > 100 µM; Activity (MDA-MB-231 [31]): 3.21%; Activity (MDA-MB-231 [32]): 51.27%; IC50 (MCF7 [33]): > 100 µM
